Legend:
P. aeruginosa PAO1 = experiment: Half maximal inhibitory concentration (IC50) of planktonic growth, CFU/mL enumeration; format: cell-based, Pseudomonas aeruginosa; conditions: for IC50: Pseudomonas aeruginosa, PAO1, planktonic growth, 24 h, 35° C, defined media, 2% DMSO, average ± SD of three experiments
Procedure: Chemicals were purchased from Fisher Scientific (Waltham, MA) unless otherwise stated. P. aeruginosa PAO1 was obtained from the University of Washington Genome center.^80 The PAO1 strain expressing enhanced yellow fluorescent protein (EYFP) was prepared as described in Soldano, A.; Yao, H.; Chandler, J. R.; Rivera, M. (2020) Inhibiting Iron Mobilization from Bacterioferritin in Pseudomonas aeruginosa Impairs Biofilm Formation Irrespective of Environmental Iron Availability. ACS Infect. Dis. 6, 447-458. 10.1021/acsinfecdis.9b00398.^26 Clinical isolates of P. aeruginosa were purchased from JMI Laboratories (North Liberty, IA, USA). […] Starter cultures of P. aeruginosa PAO1 in 5 mL LB media were grown for 13 hours in 50 mL conical tubes at 37° C. and 220 rpm. For biofilm experiments, a EYFP-expressing P. aeruginosa strain was routinely grown in Pseudomonas Isolation (PI) media (20 g L^−1 peptone, 0.3 g L^−1 MgCl2·6H O, 10 g L^−1 K2SO4, 25 mg L^−1 irgasan, and 20 mL L^−1 glycerol, pH 7.0). Starter cultures were grown from a single colony at 37° C. and shaking at 220 rpm for 14 hours in 5 mL PI media supplemented with 10 μM Fe. Pellicle biofilms were cultured for 48 hours at 30° C. in PI media supplemented with 20 μM Fe. Surface-attached biofilms were cultured in AB minimal media^81 supplemented with trace metals [0.15 μM (NH4)2MoO4, 3 μM CuSO4, 2 μM Co(NO3)2, 9.4 μM Na2B4O7, and 7.6 μM ZnSO4], 3 mM glucose and 15 μM Fe. Iron supplementation was carried out by addition of a small volume of filter-sterilized 10 mM (NH4)2Fe(SO4)2 (pH˜2.0) solution. […]; IC50 values (Table 1 below) were determined as reported previously^25 with small modifications. In brief: precultures of P. aeruginosa PAO1 (5 mL) were grown in LB media for 13 hours at 37° C. and 220 rpm in 50 mL conical tubes (VWR International, PA). The cells were centrifuged for 5 min at 4,000 rpm and 4° C., washed two times and then diluted in buffer (100 mM KH2PO4 and 15 mM (NH4)2SO4 to an optical density at 600 nm (OD600) of 0.1. A small volume of compound stock solution (10 mM) was transferred to a microcentrifuge tube, initially diluted with DMSO to 20 μL, and then diluted to 1 mL with preculture cell suspension in defined media with OD600=0.0001, so the final DMSO concentration is 2%. The resultant cell suspension (200 μL) was transferred to a clear-bottom polystyrene 96-well plate (VWR International, PA) covered with a lid and incubated at 35° C. and 205 cpm for 24 h in a Synergy H1 microplate reader (Biotek Instruments Inc., Winooski, VT). The cell cultures were serially diluted and then plated on PI Agar (PIA; BD Biosciences, San Jose, CA) plates for enumeration of viable cells (CFU/mL). The % growth was calculated from the ratio CFU/mL(treated)/CFU/mL(untreated control). To calculate the IC50 values, the % growth was plotted as a function of compound concentration, expressed as log[compound] (μM), and fitted to the 4-parameter logistic model describing the sigmoid-shaped response pattern (equation 1),^83 where b is the slope factor, max is the upper asymptote (plateau), and min is the lower asymptote. Values are the average and standard deviation from three independent experiments.

[1] = system: P. aeruginosa clinical isolate PA_1076058; format: cell-based, Pseudomonas aeruginosa; conditions: 2-day old pellicles, 24 h, 1.2× the IC50 (KM-5-25 80 μM; KM-5-66 50 μM)
Procedure: (§1) Pellicle biofilms were grown as described above.
(§2) To investigate whether the compounds are also active against other strains of P. aeruginosa, pellicles of several clinical isolates from JMI Laboratories were cultured. […] To gain a broader understanding of the potential activity spectrum of the BfrB-Bfd inhibitors against P. aeruginosa strains, BLASTp^62 was used to find homologs of BfrB and Bfd sequences in the >4,400 P. aeruginosa genomes in the Pseudomonas Genome Database.^63 The results reveal two important facts: (i) The bfrB and bfd genes are adjacent to one another in all the P. aeruginosa strains, (ii) There is an extremely high level of conservation among the bfd and bfrB sequences. These findings evidence that the compounds of the present technology are broadly active against P. aeruginosa.

[2] = system: P. aeruginosa clinical isolate PA_1081725; format: cell-based, Pseudomonas aeruginosa; conditions: 2-day old pellicles, 24 h, 1.2× the IC50 (KM-5-25 80 μM; KM-5-66 50 μM)
Procedure: as §1, §2

BfrB (apo-BfrB) = BfrB (apo-BfrB) (Pseudomonas aeruginosa (strain ATCC 15692 / DSM 22644 / CIP 104116 / JCM 14847 / LMG 12228 / 1C / PRS 101 / PAO1), UniProt Q9HY79); experiment: Fluorescence polarization measurement of dissociation constant (Kd); format: binding; conditions: for Kd: 100 mM potassium phosphate buffer pH 7.6, 1 mM TCEP, 0.5% DMSO, average ± SD
Procedure: Values were obtained in 100 mM potassium phosphate buffer (pH 7.6) containing 1 mM TCEP and 0.5% DMSO. The initial concentrations of KM-5-25 and KM-5-66 were 5 μM. The Kd values are the average and standard deviation from three independent measurements. […] The IC50 values are the average and the standard derivations from three independent experiments.
Prior to testing the effect that the 4-substituted isoindoline-1,3-dione derivatives might exert on P. aeruginosa cells, the strength of their interaction with BfrB was evaluated in vitro with a fluorescence polarization assay developed based on the intrinsic fluorescence of the isoindoline-1,3-dione moiety.

Row | SMILES | IC50 (P. aeruginosa PAO1) | fold decrease of IC50 relative to compound 16 (P. aeruginosa PAO1; relative to compound 16) | reduction of viable cells [1] | reduction of viable cells [2] | Kd (BfrB (apo-BfrB)) | fold decrease of Kd relative to compound 16 (BfrB (apo-BfrB); relative to compound 16) | fold lower IC50 relative to JAG-5-7 (P. aeruginosa PAO1; relative to JAG-5-7) | fold higher binding affinity for BfrB relative to JAG-5-7 (BfrB (apo-BfrB); relative to JAG-5-7)
1 | O=C1NC(=O)c2c(NCCCc3cc(O)cc(Cl)c3)cccc21 [KM-5-66] | 42 ± 6 µM | ~3 fold | approximately 80% | approximately 80% | 0.35 ± 0.05 µM | ~4 fold | – | –
2 | O=C1NC(=O)c2c(NCc3cc(Cl)ccc3O)cccc21 [KM-5-25] | 69 ± 7 µM | – | approximately 80% | approximately 80% | 4 ± 0.6 µM | – | ~2 fold | ~2 fold

— patent publication US12263156B2, “Use of small molecule inhibitors of the BfrB:Bfd interaction in biofilms” (priority 2020, dated 2025)
